Like-named read-outs stand apart in the source and are kept apart here.
What was measured:
[1] = Pharmacokinetics in mice (clearance, oral bioavailability, AUC); format: in vivo
[2] = tested on: Granta-519 lymphoma cell line; experiment: Reducing sDMA assay (western blot of cellular sDMA) in Granta-519; format: cell-based; settings: for sDMA signal normalized to β-Actin and DMSO control: DMSO = 100
Procedure: For western blot analysis of Cellular sDMA in Granta-519, one day before the experiment, Granta-519 cells were passaged to a density of 0.5 × 10^6 cells/ml. The next day, Granta-519 cells were spun down at 1500 rpm for 4 min, resuspended in fresh medium at 0.5E6 cells/ml and 3 mL of culture (1.5E6 cells) were seeded into a six-well plate. Eight-point, threefold serial dilutions of compound working stocks were added to cells (3 µl, 1:1000 dilution, DMSO concentration was 0.1%; final top concentration at 1 µM) and incubated for 3 days. Cells incubated with DMSO was used as vehicle control. Cells were harvested 3 days later, resuspended in 15 µL PBS, lysed in 4% SDS, and homogenized by passing through homogenizer column (Omega Biotek, Catalog #: HCR003). Total protein concentrations were determined by BCA assay (ThermoFisher Scientific, Catalog #: 23225). Lysates were mixed with 5× Laemmli buffer and boiled for 5 min. Forty micrograms of total protein was separated on SDS-PAGE gels (Bio-Rad, catalog #: 4568083, 4568043), transferred to PVDF membrane, and blocked with 5% dry milk (Bio-Rad, Catalog #: 1706404) in TBS with 0.1% v/v Tween20 (TBST) for 1 h at room temperature (RT), and incubated with primary antibodies (sDMA: Cell signaling, Catalog #: 13222, 1:3,000; β-actin: sigma, Catalog #: A2228, 1:5000) in 5% dry milk in TBST at 4 °C overnight. The next day, membranes were washed with TBST, 5 × 5 min, and incubated with HRP conjugated seconded antibody (GE Healthcare; Catalog #: NA9341 ML, NA931-1ML; 1:5000) for 2 hours at RT, followed by 5 × 5 min washes with TBST, and incubation with ECL substrates (Bio-Rad, Catalog #: 1705061, 1705062). The chemiluminescent signal was captured with Fluochem HD2 imager (Proteinsimple). SmD3me2s bands were quantified by ImageJ. Signals were normalized to β-Actin and DMSO control. IC50 values were calculated using Graphpad Prism (v9.2.0) ([Inhibitor] vs. normalized response – Variable slope).

[3] = tested on: leukemia and lymphoma cell lines; experiment: Proliferation of a panel of leukemia and B-lymphoma cell lines, 72 h, MTS assay; format: cell-based; settings: for IC50: CCMCL-1, JVM-2, U-2932, RL, and KARPAS-422, read-out: Anti-proliferative IC50 values, range over cell lines
Procedure: Cell proliferation was assessed via MTS (3-[4,5-dimethylthiazol-2-yl]-5-[3-carboxymethoxyphenyl]-2-[4-sulfophenyl]-2H-tetrazolium) assay (Sigma), using the tetrazolium dye […]. Cell apoptosis was evaluated by Annexin V-FITC or PE and propidium iodide (PI) staining using FC500 cytometer (Beckman-Coulter, Indianapolis, IN) following the manufacturer’s procedure (BD Pharmingen, Billerica, MA)[55]. For cell cycle analysis, cells were fixed with cold ethanol overnight and then stained before analysis with 30 μg/mL propidium iodide (Invitrogen) and 200 μg/mL RNase (Sigma-Aldrich) in 0.1 % v/v Triton X-100 (Sigma-Aldrich). Cell cycle data analysis was performed using ModFit LT software (Verity Software House, Topsham, ME).

CON=c1nc[nH]c2c1ccn2[C@@H]1O[C@H]([C@H](O)c2ccc(Cl)c(Cl)c2)[C@@H](O)[C@H]1O.Cl [PRT382, (2 R,3 S,4 R,5 R)-2-[(R)-(3,4-dichlorophenyl)-hydroxy-methyl]-5-[(4Z)-4-methoxyimino-1H-pyrrolo[2,3-d]pyrimidin-7-yl]tetrahydrofuran-3,4-diol hydrochloride]
clearance [1]: low | bioavailability ([1]; mouse, in vivo, po, read-out: oral bioavailability (F%)): 70 to 80% | sDMA signal normalized to β-Actin and DMSO control ([2]; Conc. 0.000457247 µM): 88.6989 | sDMA signal normalized to β-Actin and DMSO control ([2]; Conc. 0.00137174 µM): 97.8569 | sDMA signal normalized to β-Actin and DMSO control ([2]; Conc. 0.00411523 µM): 93.6002 | sDMA signal normalized to β-Actin and DMSO control ([2]; Conc. 0.0123457 µM): 75.2291 | sDMA signal normalized to β-Actin and DMSO control ([2]; Conc. 0.037037 µM): 39.1378 | sDMA signal normalized to β-Actin and DMSO control ([2]; Conc. 0.111111 µM): 15.0036 | sDMA signal normalized to β-Actin and DMSO control ([2]; Conc. 0.333333 µM): 6.086 | sDMA signal normalized to β-Actin and DMSO control ([2]; Conc. 1 µM): 6.863 | IC50 ([2]; Homo sapiens, 72 h, Granta-519, 3 days): 27 nM | proliferation relative to DMSO (=1), Figure 6F ([3]; CCMCL, 1e-9 M): 0.94 | proliferation relative to DMSO (=1), Figure 6F ([3]; CCMCL, 1e-8 M): 0.93 | proliferation relative to DMSO (=1), Figure 6F ([3]; CCMCL, 1e-7 M): 0.55 | proliferation relative to DMSO (=1), Figure 6F ([3]; CCMCL, 1e-6 M): 0.13 | proliferation relative to DMSO (=1), Figure 6F ([3]; CCMCL, 1e-5 M): 0.12 | IC50 ([3]; earlier manuscript text quoted in the peer review file): 10 to 100 nM | IC50 [3]: 10 to 500 nM | proliferation relative to DMSO (=1), Figure 6F ([3]; Jeko, 1e-9 M): 1 | proliferation relative to DMSO (=1), Figure 6F ([3]; Jeko, 1e-8 M): 0.98 | proliferation relative to DMSO (=1), Figure 6F ([3]; Jeko, 1e-7 M): 0.96 | proliferation relative to DMSO (=1), Figure 6F ([3]; Jeko, 1e-6 M): 0.13 | proliferation relative to DMSO (=1), Figure 6F ([3]; Jeko, 1e-5 M): 0.14 | proliferation relative to DMSO (=1), Figure 6F ([3]; Pfeiffer, 1e-9 M): 0.99 | proliferation relative to DMSO (=1), Figure 6F ([3]; Pfeiffer, 1e-8 M): 1 | proliferation relative to DMSO (=1), Figure 6F ([3]; Pfeiffer, 1e-7 M): 0.76 | proliferation relative to DMSO (=1), Figure 6F ([3]; Pfeiffer, 1e-6 M): 0.18 | proliferation relative to DMSO (=1), Figure 6F ([3]; Pfeiffer, 1e-5 M): 0.22 | proliferation relative to DMSO (=1), Figure 6F ([3]; SU-DHL-4, 1e-9 M): 1 | proliferation relative to DMSO (=1), Figure 6F ([3]; SU-DHL-4, 1e-8 M): 1 | proliferation relative to DMSO (=1), Figure 6F ([3]; SU-DHL-4, 1e-7 M): 0.79 | proliferation relative to DMSO (=1), Figure 6F ([3]; SU-DHL-4, 1e-6 M): 0.13 | proliferation relative to DMSO (=1), Figure 6F ([3]; SU-DHL-4, 1e-5 M): 0.15

— publication PMC9823097, “Dysregulation of PRMT5 in chronic lymphocytic leukemia promotes progression with high risk of Richter’s transformation” (Nature Communications, 2023)
